Source: ChEMBL document CHEMBL3885881, “DrugMatrix”

Organism: Rattus norvegicus
Assay: DrugMatrix - Regimen: Daily Repeat
Format: toxicity, organism-based, Sprague-Dawley
Design: regimen Daily Repeat, gender Male, age 6-8 weeks
Conditions: in vivo, po, route oral GAVAGE, vehicle 100 % WATER; for ABSOLUTE BASOPHIL / ABSOLUTE EOSINOPHIL / ABSOLUTE LYMPHOCYTE / ABSOLUTE MONOCYTE / ABSOLUTE SEGMENTED NEUTROPHIL / BASOPHIL / EOSINOPHIL / ERYTHROCYTE COUNT / HEMATOCRIT / HEMOGLOBIN / LEUKOCYTE COUNT / LYMPHOCYTE / MEAN CORPUSCULAR HEMOGLOBIN / MEAN CORPUSCULAR HEMOGLOBIN CONCENTRATION / MONOCYTE / NEUTROPHIL / NUCLEATED RED BLOOD CELLS / PLATELET COUNT: tissue Blood; for ALANINE AMINOTRANSFERASE / ALBUMIN / ALKALINE PHOSPHATASE / ASPARTATE AMINOTRANSFERASE / BLOOD UREA NITROGEN / CARBON DIOXIDE / CHLORIDE / CREATINE PHOSPHOKINASE / CREATININE / GLUCOSE / LACTATE DEHYDROGENASE / LIPASE / PHOSPHORUS / POTASSIUM / SODIUM / TOTAL BILIRUBIN / TOTAL PROTEIN / URIC ACID / CHOLESTEROL: tissue Plasma
[1] = 35 mg/kg, 120 h, dose level Low, time 5 day
[2] = 1300 mg/kg, 72 h, dose level High, time 3 day
[3] = 1300 mg/kg, 120 h, dose level High, time 5 day

## Nc1ccn([C@@H]2CS[C@H](CO)O2)c(=O)n1 [LAMIVUDINE]
[1]
  ABSOLUTE BASOPHIL: 0 CELLS/uL
  ABSOLUTE EOSINOPHIL: 0 CELLS/uL
  ABSOLUTE LYMPHOCYTE: 6530 CELLS/uL
  ABSOLUTE MONOCYTE: 98.67 CELLS/uL
  ABSOLUTE SEGMENTED NEUTROPHIL: 638 CELLS/uL
  BASOPHIL: 0%
  EOSINOPHIL: 0%
  ERYTHROCYTE COUNT: 5.57 x10E6/uL
  HEMATOCRIT: 34.73%
  HEMOGLOBIN: 13.6 G/DL
  LEUKOCYTE COUNT: 7.27 x10E3/uL
  LYMPHOCYTE: 89.67%
  MEAN CORPUSCULAR HEMOGLOBIN: 24.43 pg
  MEAN CORPUSCULAR HEMOGLOBIN CONCENTRATION: 39.2 G/DL
  MONOCYTE: 1.33%
  NEUTROPHIL: 9%
  NUCLEATED RED BLOOD CELLS: 0.33 /100WBC
  PLATELET COUNT: 1079.33 x10E3/uL
  ALANINE AMINOTRANSFERASE: 45.33 u/L
  ALBUMIN: 4.1 G/DL
  ALKALINE PHOSPHATASE: 359.67 u/L
  ASPARTATE AMINOTRANSFERASE: 82.67 u/L
  BLOOD UREA NITROGEN: 16.67 mg/dL
  CARBON DIOXIDE: 31.33 mmol/L
  CHLORIDE: 100.33 MEQ/L
  CREATINE PHOSPHOKINASE: 391.67 u/L
  CREATININE: 0.16 mg/dL
  GLUCOSE: 152 mg/dL
  LACTATE DEHYDROGENASE: 141.33 u/L
  LIPASE: 8.33 u/L
  PHOSPHORUS: 11.47 mg/dL
  POTASSIUM: 5.48 MEQ/L
  SODIUM: 144.47 MEQ/L
  TOTAL BILIRUBIN: 0.2 mg/dL
  TOTAL PROTEIN: 6.13 G/DL
  URIC ACID: 0.6 mg/dL
[2]
  ABSOLUTE BASOPHIL: 0 CELLS/uL
  ABSOLUTE EOSINOPHIL: 0 CELLS/uL
  ABSOLUTE LYMPHOCYTE: 11276.67 CELLS/uL
  ABSOLUTE MONOCYTE: 81 CELLS/uL
  ABSOLUTE SEGMENTED NEUTROPHIL: 842.33 CELLS/uL
  BASOPHIL: 0%
  EOSINOPHIL: 0%
  ERYTHROCYTE COUNT: 5.54 x10E6/uL
  HEMATOCRIT: 34.33%
  HEMOGLOBIN: 13.53 G/DL
  LEUKOCYTE COUNT: 12.2 x10E3/uL
  LYMPHOCYTE: 92.33%
  MEAN CORPUSCULAR HEMOGLOBIN: 24.43 pg
  MEAN CORPUSCULAR HEMOGLOBIN CONCENTRATION: 39.4 G/DL
  MONOCYTE: 0.67%
  NEUTROPHIL: 7%
  NUCLEATED RED BLOOD CELLS: 0.33 /100WBC
  PLATELET COUNT: 1155.33 x10E3/uL
  ALANINE AMINOTRANSFERASE: 45.67 u/L
  ALBUMIN: 4 G/DL
  ALKALINE PHOSPHATASE: 373.67 u/L
  ASPARTATE AMINOTRANSFERASE: 80 u/L
  BLOOD UREA NITROGEN: 10.67 mg/dL
  CARBON DIOXIDE: 27 mmol/L
  CHLORIDE: 102.33 MEQ/L
  CHOLESTEROL: 78.67 mg/dL
  CREATINE PHOSPHOKINASE: 337 u/L
  CREATININE: 0.17 mg/dL
  GLUCOSE: 141 mg/dL
  LACTATE DEHYDROGENASE: 297.67 u/L
  LIPASE: 9.67 u/L
  PHOSPHORUS: 11.83 mg/dL
  POTASSIUM: 6.19 MEQ/L
  SODIUM: 143.47 MEQ/L
  TOTAL BILIRUBIN: 0.13 mg/dL
  TOTAL PROTEIN: 5.8 G/DL
  URIC ACID: 1.57 mg/dL
[3]
  ABSOLUTE BASOPHIL: 0 CELLS/uL
  ABSOLUTE EOSINOPHIL: 61 CELLS/uL
  ABSOLUTE LYMPHOCYTE: 14479 CELLS/uL
  ABSOLUTE MONOCYTE: 224.33 CELLS/uL
  ABSOLUTE SEGMENTED NEUTROPHIL: 1569 CELLS/uL
  BASOPHIL: 0%
  EOSINOPHIL: 0.33%
  ERYTHROCYTE COUNT: 5.68 x10E6/uL
  HEMATOCRIT: 36.2%
  HEMOGLOBIN: 13.93 G/DL
  LEUKOCYTE COUNT: 16.33 x10E3/uL
  LYMPHOCYTE: 88.67%
  MEAN CORPUSCULAR HEMOGLOBIN: 24.5 pg
  MEAN CORPUSCULAR HEMOGLOBIN CONCENTRATION: 38.5 G/DL
  MONOCYTE: 1.33%
  NEUTROPHIL: 9.67%
  NUCLEATED RED BLOOD CELLS: 0 /100WBC
  PLATELET COUNT: 1204.33 x10E3/uL
  ALANINE AMINOTRANSFERASE: 50 u/L
  ALBUMIN: 3.9 G/DL
  ALKALINE PHOSPHATASE: 303.67 u/L
  ASPARTATE AMINOTRANSFERASE: 84.33 u/L
  BLOOD UREA NITROGEN: 15 mg/dL
  CARBON DIOXIDE: 24.33 mmol/L
  CHLORIDE: 102 MEQ/L
  CHOLESTEROL: 70 mg/dL
  CREATINE PHOSPHOKINASE: 295.33 u/L
  CREATININE: 0.2 mg/dL
  GLUCOSE: 162.67 mg/dL
  LACTATE DEHYDROGENASE: 239 u/L
  LIPASE: 11 u/L
  PHOSPHORUS: 11.9 mg/dL
  POTASSIUM: 6.04 MEQ/L
  SODIUM: 143.87 MEQ/L
  TOTAL BILIRUBIN: 0.17 mg/dL
  TOTAL PROTEIN: 5.73 G/DL
  URIC ACID: 1.53 mg/dL
